This passage reports EC50 results from PubChem BioAssay AID434930 (Broad Institute, 2010).

Inconclusive results are not listed. Active and inactive are the calls of the source.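 The calls were made as follows: active = fitted EC50 no higher than ten times the highest tested concentration; inconclusive = flat fit with 30 to 70% inhibition, or poor fit; inactive = EC50 beyond ten times the top tested dose.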

The subject of the assay is C. albicans CaCi-2 + fluconazole, Alamar Blue growth, 48 h. Briefly: C. albicans growth inhibition with fluconazole, dose response, C. albicans CaCi-2 (fluconazole-resistant clinical isolate), fluorescence, retest (AID 434930).
For the molecule `Clc1ccc2c(c1)C(c1cccs1)=NNC(c1cccnc1)=N2`, the EC50 was 77.8 nM.

Take `O=c1c2cc(Br)ccc2nc(-c2cccc(C(F)(F)F)c2)n1O`: the EC50 was 4160 nM.

As to `COc1ccc(-n2nc(C(=O)NCC(=O)N3CCN(c4ccccc4)CC3)c3ccccc3c2=O)c(OC)c1`, the EC50 was 7170 nM.

In the case of `O=C(NNC1=C(C(=O)C(F)(F)F)CCC1)c1ccc(Cl)cc1`, the EC50 is 18800 nM.

For the molecule `O=C(Oc1c(Cl)cc(Cl)c2cccnc12)c1cccs1`, the EC50 is 280 nM.

As for `O=C(Nc1sc2c(c1C(=O)c1ccc(Cl)cc1)CCCC2)c1cccnc1`, the EC50 is 1830 nM.

Regarding `Cc1ccc(C(=O)Nc2cccc(-c3cn4ccccc4n3)c2)cc1`, the EC50 was 6790 nM.

On to `Nc1nccnc1C(=O)Nc1nnc(SCc2ccc(Cl)cc2)s1`, for which the EC50 is 2110 nM.

As for `O=C(Nc1nc(-c2ccccn2)cs1)c1ccc(Br)s1`, the EC50 is 11100 nM.

For `CCOC(=O)N1C(=O)C2(CCCCC2)N(c2ccc(C)cc2)C1=S`, the EC50 is less than 100 nM.

On to `O=C(Nc1nnc(CCc2ccccc2)s1)c1ccco1`, for which the EC50 is 3080 nM.

Take `Cc1ccc(C(=O)c2coc3c2C(=O)C(=O)c2ccccc2-3)cc1`: the EC50 was 2890 nM.

Take `COc1ccc(-c2nnc(NC(=O)c3ccc(F)cc3)o2)cc1`: the EC50 is 489 nM.

`CCCC(=O)NC(c1ccccc1)c1ccc2cccnc2c1O` (stereo not drawn): the 50% effective concentration (EC50) was 577 nM.

As for `CCCC(=O)NC(c1ccc(Cl)cc1)c1ccc2cccnc2c1O` (stereo not drawn), the EC50 was 486 nM.

`Cc1oc2c(F)c(F)c(F)c(F)c2c1S(=O)(=O)Nc1cccc(C(F)(F)F)c1`: the half-maximal effective concentration (EC50) is 10800 nM.

In the case of `Cc1ccc(/C=C/C(=O)c2ccccc(=O)c2O)cc1C`, the EC50 is > 26000 nM (inactive).

For the molecule `CC(C)COCc1ccc(O)c2ncccc12`, the EC50 was 16500 nM.

Turning to `O=C(Nc1nnc(-c2ccco2)o1)c1ccc(Cl)cc1`, the concentration for a half-maximal effect (EC50) is 1280 nM.

For the molecule `COc1cc2c(cc1NC(=O)c1ccco1)CCCC2`, the EC50 is 103 nM.

Take `CC(C)N1CCc2c(sc(NC(=O)c3nc4ccccc4s3)c2C(N)=O)C1`: the EC50 is 1190 nM.

Take `O=C(Nc1nnc(-c2ccc3c(c2)CCCC3)o1)c1ccc(Cl)cc1Cl`: the EC50 was 321 nM.

As to `Cc1nc2ccccc2cc1OCc1ccc(F)cc1`, the EC50 was 8450 nM.
